Measurements taken from patent US20020137929A1, “1 - (3-heterocyclylphenyl) isothiourea, -isourea, -guanidine and -amidine herbicidal agents” (Intellectual Property Department, BASF Aktiengesellschaft, priority 1998, published 2002).

What was measured:
[1] = system: ZEAMX (Corn, Field); test: Postemergence herbicidal evaluation; format: in vivo, Zea mays; settings: postemergence
In short: (§1)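 ~2-wk seedlings; postemergence spray, 40 psi; vehicle 1:1 acetone:water + 0.5% Tween 20; rate ≈0.0156–0.500 kg/ha; greenhouse hold; scored 4–5 wk after treatment, 0–9 scale vs control; repeat tests averaged.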

[2] = system: CHEAL (Lambsquarters, Common); test: Preemergence herbicidal evaluation; format: in vivo, Chenopodium album; settings: rated 4-5 weeks after treatment
In short: (§2)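 Greenhouse preemergence test: seed-soil mix sown on ~1 inch soil; aqueous acetone spray at equivalent of ~0.0156–0.500 kg/ha; greenhouse-held and watered; scored 0–9 visually at 4–5 weeks.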

[3] = system: AMBEL (Ragweed, Common); test: Postemergence herbicidal evaluation; format: in vivo, Ambrosia artemisifolia; settings: postemergence
In short: as §1

[4] = system: CHEAL (Lambsquarters, Common); test: Postemergence herbicidal evaluation; format: in vivo, Chenopodium album; settings: postemergence
In short: as §1

[5] = system: CASOB (Sicklepod); test: Preemergence herbicidal evaluation; format: in vivo, Cassia obtusifolia; settings: rated 4-5 weeks after treatment
In short: as §2

[6] = system: GLXMAW (Soybean, Williams); test: Postemergence herbicidal evaluation; format: in vivo, Glycine max, (L.) Merr. cv Williams; settings: postemergence
In short: as §1

[7] = system: ECHCG (Barnyardgrass); test: Postemergence herbicidal evaluation; format: in vivo, Echinochloa crus-galli; settings: postemergence
In short: as §1

[8] = system: AMBEL (Ragweed, Common); test: Preemergence herbicidal evaluation; format: in vivo, Ambrosia artemisifolia; settings: rated 4-5 weeks after treatment
Excerpt: Results of herbicide evaluation are expressed on a rating scale (0-9). The scale is based upon a visual observation of plant stand, vigor, malformation, size, chlorosis and overall plant appearance as compared with a control.
The preemergence herbicidal activity of the test compounds of the present invention is exemplified by the following tests in which the seeds of a variety of monocotyledonous and dicotyledonous plants are separately mixed with potting soil and planted on top of approximately one inch of soil in separate pint cups. After planting, the cups are sprayed with the selected aqueous acetone solution containing test compound in sufficient quantity to provide the equivalent of about 0.0156 to 0.500 kg per hectare of test compound per cup. The treated cups are then placed on greenhouse benches, watered and cared for in accordance with conventional greenhouse procedures. From four to five weeks after treatment, the tests are terminated and each cup is examined and rated according to the rating system provided in Example 37.
The compounds evaluated are reported by compound number given in Example 37.

[9] = system: CYPSE (Flatsedge); test: Preemergence weed control under flooded paddy conditions; format: in vivo, Cyperus serotinus; settings: rated 3-4 weeks after treatment
In short: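 Seeds or propagules sown in silt loam kept flooded 1.5-3 cm; compounds in 50/50 acetone/water pipetted into flood water at about 0.0313 to 0.500 kg/ha. Greenhouse; visual 0-9 rating versus untreated control 3-4 weeks after treatment.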

[10] = system: ABUTH (Velvetleaf); test: Postemergence herbicidal evaluation; format: in vivo, Abutilon theophrasti; settings: postemergence
In short: as §1

[11] = system: GALAP (Galium); test: Preemergence herbicidal evaluation; format: in vivo, Galium aparine; settings: rated 4-5 weeks after treatment
In short: as §2

[12] = system: ORYSAT (Rice, Tebonnet); test: Postemergence herbicidal evaluation; format: in vivo, Oryza sativa, (L.) Tebonnet; settings: postemergence
In short: as §1

[13] = rate 0.0313 kg/ha, rating scale 0-9
[14] = rate 0.0625 kg/ha, rating scale 0-9
[15] = rate 0.1250 kg/ha, rating scale 0-9
[16] = rate 0.2500 kg/ha, rating scale 0-9

## Cn1c(C(F)(F)F)cc(=O)n(-c2cc(N=C3SCC(=O)N3Cc3ccccn3)c(Cl)cc2F)c1=O [Compound 131]
[1]; rate 0.0156 kg/ha
  Herbicidal rating ZEAMX: 4.5
[1]; rate 0.0313 kg/ha
  Herbicidal rating ZEAMX: 4.5
[1]; rate 0.0625 kg/ha
  Herbicidal rating ZEAMX: 4.5
[2]; [13]
  Preemergence herbicidal rating CHEAL: 4.0
[2]; [14]
  Preemergence herbicidal rating CHEAL: 9.0
[2]; [15]
  Preemergence herbicidal rating CHEAL: 9.0
[2]; [16]
  Preemergence herbicidal rating CHEAL: 9.0
[3]; rate 0.0156 kg/ha
  Herbicidal rating AMBEL: 7.0
[3]; rate 0.0313 kg/ha
  Herbicidal rating AMBEL: 9.0
[3]; rate 0.0625 kg/ha
  Herbicidal rating AMBEL: 9.0
[4]; rate 0.0156 kg/ha
  Herbicidal rating CHEAL: 3.0
[4]; rate 0.0313 kg/ha
  Herbicidal rating CHEAL: 5.0
[4]; rate 0.0625 kg/ha
  Herbicidal rating CHEAL: 9.0
[5]; [13]
  Preemergence herbicidal rating CASOB: 0.0
[5]; [14]
  Preemergence herbicidal rating CASOB: 0.0
[5]; [15]
  Preemergence herbicidal rating CASOB: 0.0
[5]; [16]
  Preemergence herbicidal rating CASOB: 2.0
[6]; rate 0.0156 kg/ha
  Herbicidal rating GLXMAW: 4.5
[6]; rate 0.0313 kg/ha
  Herbicidal rating GLXMAW: 5.0
[6]; rate 0.0625 kg/ha
  Herbicidal rating GLXMAW: 5.5
[7]; rate 0.0156 kg/ha
  Herbicidal rating ECHCG: 2.0
[7]; rate 0.0313 kg/ha
  Herbicidal rating ECHCG: 2.0
[7]; rate 0.0625 kg/ha
  Herbicidal rating ECHCG: 2.0
[8]; [13]
  Preemergence herbicidal rating AMBEL: 0.0
[8]; [14]
  Preemergence herbicidal rating AMBEL: 0.0
[8]; [15]
  Preemergence herbicidal rating AMBEL: 0.0
[8]; [16]
  Preemergence herbicidal rating AMBEL: 0.0
[9]; 0.1250 kg/ha
  herbicidal effect rating, CYPSE: 0.0
[9]; 0.2500 kg/ha
  herbicidal effect rating, CYPSE: 0.0
[10]; rate 0.0156 kg/ha
  Herbicidal rating ABUTH: 7.0
[10]; rate 0.0313 kg/ha
  Herbicidal rating ABUTH: 9.0
[10]; rate 0.0625 kg/ha
  Herbicidal rating ABUTH: 9.0
[11]; [13]
  Preemergence herbicidal rating GALAP: 0.0
[11]; [14]
  Preemergence herbicidal rating GALAP: 3.0
[11]; [15]
  Preemergence herbicidal rating GALAP: 2.0
[11]; [16]
  Preemergence herbicidal rating GALAP: 9.0
[12]; rate 0.0156 kg/ha
  Herbicidal rating ORYSAT: 2.0
[12]; rate 0.0313 kg/ha
  Herbicidal rating ORYSAT: 2.5
[12]; rate 0.0625 kg/ha
  Herbicidal rating ORYSAT: 3.0

## Cc1ccccc1CN1C(=O)CSC1=Nc1cc(-n2c(=O)cc(C(F)(F)F)n(C)c2=O)c(F)cc1Cl [Compound 129, 3-{4-Chloro-2-fluoro-5-{[3-(o-methylbenzyl)-4-oxo-2-thiazolidinylidene]amino}phenyl}-1-methyl-6-(trifluoromethyl)-2,4 (1H,3H)-pyrimidinedione]
[1]; rate 0.0156 kg/ha
  Herbicidal rating ZEAMX: 4.0
[1]; rate 0.0313 kg/ha
  Herbicidal rating ZEAMX: 4.5
[1]; rate 0.0625 kg/ha
  Herbicidal rating ZEAMX: 4.5
[2]; rate 0.0156 kg/ha
  Preemergence herbicidal rating CHEAL: 4.0
[2]; rate 0.0313 kg/ha
  Preemergence herbicidal rating CHEAL: 3.0
[2]; rate 0.0625 kg/ha
  Preemergence herbicidal rating CHEAL: 9.0
[2]; rate 0.1250 kg/ha
  Preemergence herbicidal rating CHEAL: 9.0
[2]; rate 0.2500 kg/ha
  Preemergence herbicidal rating CHEAL: 9.0
[3]; rate 0.0156 kg/ha
  Herbicidal rating AMBEL: 9.0
[3]; rate 0.0313 kg/ha
  Herbicidal rating AMBEL: 9.0
[3]; rate 0.0625 kg/ha
  Herbicidal rating AMBEL: 9.0
[4]; rate 0.0156 kg/ha
  Herbicidal rating CHEAL: 5.0
[4]; rate 0.0313 kg/ha
  Herbicidal rating CHEAL: 9.0
[4]; rate 0.0625 kg/ha
  Herbicidal rating CHEAL: 9.0
[5]; rate 0.0156 kg/ha
  Preemergence herbicidal rating CASOB: 1.0
[5]; rate 0.0313 kg/ha
  Preemergence herbicidal rating CASOB: 1.0
[5]; rate 0.0625 kg/ha
  Preemergence herbicidal rating CASOB: 1.0
[5]; rate 0.1250 kg/ha
  Preemergence herbicidal rating CASOB: 7.0
[5]; rate 0.2500 kg/ha
  Preemergence herbicidal rating CASOB: 8.0
[6]; rate 0.0156 kg/ha
  Herbicidal rating GLXMAW: 5.0
[6]; rate 0.0313 kg/ha
  Herbicidal rating GLXMAW: 5.0
[6]; rate 0.0625 kg/ha
  Herbicidal rating GLXMAW: 6.0
[7]; rate 0.0156 kg/ha
  Herbicidal rating ECHCG: 1.0
[7]; rate 0.0313 kg/ha
  Herbicidal rating ECHCG: 2.0
[7]; rate 0.0625 kg/ha
  Herbicidal rating ECHCG: 3.0
[8]; rate 0.0156 kg/ha
  Preemergence herbicidal rating AMBEL: 0.0
[8]; rate 0.0313 kg/ha
  Preemergence herbicidal rating AMBEL: 0.0
[8]; rate 0.0625 kg/ha
  Preemergence herbicidal rating AMBEL: 0.0
[8]; rate 0.1250 kg/ha
  Preemergence herbicidal rating AMBEL: 7.0
[8]; rate 0.2500 kg/ha
  Preemergence herbicidal rating AMBEL: 7.0
[9]; 0.1250 kg/ha
  herbicidal effect rating, CYPSE: 7.0
[9]; 0.2500 kg/ha
  herbicidal effect rating, CYPSE: 9.0
[10]; rate 0.0156 kg/ha
  Herbicidal rating ABUTH: 9.0
[10]; rate 0.0313 kg/ha
  Herbicidal rating ABUTH: 9.0
[10]; rate 0.0625 kg/ha
  Herbicidal rating ABUTH: 9.0
[11]; rate 0.0156 kg/ha
  Preemergence herbicidal rating GALAP: 1.0
[11]; rate 0.0313 kg/ha
  Preemergence herbicidal rating GALAP: 1.0
[11]; rate 0.0625 kg/ha
  Preemergence herbicidal rating GALAP: 1.0
[11]; rate 0.1250 kg/ha
  Preemergence herbicidal rating GALAP: 0.0
[11]; rate 0.2500 kg/ha
  Preemergence herbicidal rating GALAP: 0.0
[12]; rate 0.0156 kg/ha
  Herbicidal rating ORYSAT: 2.5
[12]; rate 0.0313 kg/ha
  Herbicidal rating ORYSAT: 3.5
[12]; rate 0.0625 kg/ha
  Herbicidal rating ORYSAT: 3.0

## Cn1c(C(F)(F)F)cc(=O)n(-c2cc(N=C3SCC(=O)N3Cc3cccnc3)c(Cl)cc2F)c1=O [Compound 132, 3-{4-Chloro-2-fluoro-5-{[4-oxo-3-(3-pyridylmethyl)-2-thiazolidinylidene]amino}phenyl}-1-methyl-6-(trifluoromethyl)-2,4 (1H,3H)-pyrimidinedione]
[1]; rate 0.0156 kg/ha
  Herbicidal rating ZEAMX: 3.5
[1]; rate 0.0313 kg/ha
  Herbicidal rating ZEAMX: 4.0
[1]; rate 0.0625 kg/ha
  Herbicidal rating ZEAMX: 4.5
[2]; [14]
  Preemergence herbicidal rating CHEAL: 9.0
[2]; [15]
  Preemergence herbicidal rating CHEAL: 9.0
[2]; [16]
  Preemergence herbicidal rating CHEAL: 9.0
[3]; rate 0.0156 kg/ha
  Herbicidal rating AMBEL: 5.0
[3]; rate 0.0313 kg/ha
  Herbicidal rating AMBEL: 9.0
[3]; rate 0.0625 kg/ha
  Herbicidal rating AMBEL: 9.0
[4]; rate 0.0156 kg/ha
  Herbicidal rating CHEAL: 4.0
[4]; rate 0.0313 kg/ha
  Herbicidal rating CHEAL: 4.0
[4]; rate 0.0625 kg/ha
  Herbicidal rating CHEAL: 9.0
[5]; [14]
  Preemergence herbicidal rating CASOB: 0.0
[5]; [16]
  Preemergence herbicidal rating CASOB: 0.0
[6]; rate 0.0156 kg/ha
  Herbicidal rating GLXMAW: 5.0
[6]; rate 0.0313 kg/ha
  Herbicidal rating GLXMAW: 5.0
[6]; rate 0.0625 kg/ha
  Herbicidal rating GLXMAW: 6.0
[7]; rate 0.0156 kg/ha
  Herbicidal rating ECHCG: 1.0
[7]; rate 0.0313 kg/ha
  Herbicidal rating ECHCG: 2.0
[7]; rate 0.0625 kg/ha
  Herbicidal rating ECHCG: 2.0
[8]; [14]
  Preemergence herbicidal rating AMBEL: 0.0
[8]; [15]
  Preemergence herbicidal rating AMBEL: 4.0
[8]; [16]
  Preemergence herbicidal rating AMBEL: 7.0
[9]; 0.0313 kg/ha
  herbicidal effect rating, CYPSE: 0.0
[9]; 0.0625 kg/ha
  herbicidal effect rating, CYPSE: 0.0
[9]; 0.1250 kg/ha
  herbicidal effect rating, CYPSE: 0.0
[9]; 0.2500 kg/ha
  herbicidal effect rating, CYPSE: 0.0
[10]; rate 0.0156 kg/ha
  Herbicidal rating ABUTH: 9.0
[10]; rate 0.0313 kg/ha
  Herbicidal rating ABUTH: 9.0
[10]; rate 0.0625 kg/ha
  Herbicidal rating ABUTH: 9.0
[11]; [14]
  Preemergence herbicidal rating GALAP: 4.0
[11]; [15]
  Preemergence herbicidal rating GALAP: 4.0
[11]; [16]
  Preemergence herbicidal rating GALAP: 5.0
[12]; rate 0.0156 kg/ha
  Herbicidal rating ORYSAT: 2.0
[12]; rate 0.0313 kg/ha
  Herbicidal rating ORYSAT: 3.0
[12]; rate 0.0625 kg/ha
  Herbicidal rating ORYSAT: 3.5
